From patent publication US11542273B2, “Amide compound having bet proteolysis-inducing action and medicinal application thereof” (MITSUBISHI TANABE PHARMA CORPORATION, priority 2018, dated 2023)
pIC50: −log10 of the molar value.

Key:
BRD4 bromodomain 1 = BRD4 bromodomain 1 (Homo sapiens (Human), UniProt O60885); assay: Inhibitory action on binding of BRD4 protein and ligand, Test Method 1 (TR-FRET, BRD4 bromodomain 1 TR-FRET Assay Kit); settings: Test Method 1, BRD4 bromodomain 1 and ligand
Experimental: The inhibitory action of the compound of the present invention on the binding of BRD4 protein and a ligand thereof was evaluated by the time-resolved fluorescence resonance energy transfer (TR-FRET) method using BRD4 bromodomain 1 TR-FRET Assay Kit (Cayman). In this experiment, (+)-JQ1 known to have an inhibitory activity on the binding of BRD4 protein and a ligand therefor was used as a positive control drug. A test compound dissolved in DMSO was diluted with TR-FRET Assay Buffer, added to a 384 well black plate, BRD4 bromodomain 1 Europium Chelete was further added and the cells were incubated at room temperature for 15 min. Thereafter, BRD4 bromodomain 1 Ligand/APC Acceptor Mixture was added and the cells were incubated at room temperature for 1 hr. The binding amount of the BRD4 protein and ligand was measured as fluorescence intensity (excitation: 340 nm/emission: 620 nm and excitation: 340 nm/emission: 670 nm).
It was calculated from the straight line connecting the degradation rate at two points enclosing the 50% fluorescence intensity and the compound concentration.

BRD4 protein = BRD4 protein (Homo sapiens (Human), UniProt O60885); assay: BRD4 protein degradation inducing action in cancer cells (immunofluorescence, Operetta); type: cell-based; settings: LNCaP cells, 6 hr treatment, fluorescence intensity
Method in brief: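 LNCaP prostate cancer cells in 10% FBS/RPMI1640 were exposed to compound for 6 hr at 37° C, then fixed, permeabilized and immunostained for BRD4 with Alexa Fluor 488 or 546 secondary antibodies plus Hoechst nuclear stain. Fluorescence was read by high-content imaging; DC50 is the concentration giving 50% of untreated signal, interpolated linearly between bracketing points.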

BRD4-1 (GST) = BRD4-1 (GST) (Homo sapiens (Human), UniProt O60885); assay: Inhibitory action on binding of BRD4 protein and acetylated histone H4, Test Method 2 (TR-FRET); settings: Test Method 2, BRD4-1 (GST) and acetylated histone H4, TR-FRET
Experimental: The inhibitory action of the compound of the present invention on the binding of BRD4 protein and a ligand thereof (acetylated histone H4) was evaluated by the time-resolved fluorescence resonance energy transfer (TR-FRET) method using EPIgeneous™ Binding Domain Kit A (Cisbio), BRD4-1 (GST) (Reaction Biology Corp) and [Lys(Ac)5/8/12/16]-Histone H4(1-21)-GGK (Biotin) (Eurogentec). In this experiment, (+)-JQ1 known to have an inhibitory activity on the binding of BRD4 protein and acetylated histone H4 therefor was used as a positive control drug. A test compound dissolved DMSO was diluted with attached Diluent Buffer, added to a 384 well white plate, and BRD4-1 (GST) and [Lys(Ac)5/8/12/16]-Histone H4(1-21)-GGK (Biotin) were further added. Thereafter, Streptavidin-d2 conjugate and Anti-GST-Eu^3+ Cryptate Conjugate were added and the cells were incubated at room temperature for 3 hr. The binding amount of the BRD4 protein and acetylated histone H4 was measured as the fluorescence intensity (excitation: 314 nm/emission: 620 nm and excitation: 314 nm/emission: 665 nm). […] It was calculated from the straight line connecting the degradation rate at two points enclosing the 50% fluorescence intensity and the compound concentration.

**Q.** With `COC(=O)C[C@@H]1N=C(c2ccc(-c3ccc(OCC(=O)N[C@H](C(=O)N4C[C@H](O)C[C@H]4C(=O)N[C@@H](C)c4ccc(-c5scnc5C)cc4)C(C)(C)C)c(C#N)c3)cc2)c2c(sc(C)c2C)-n2c(C)nnc21` [Example 9, methyl [(6S)-4-{3′-cyano-4′-[2-({(2S)-1-[(2S,4R)-4-hydroxy-2-({(1S)-1-[4-(4-methyl-1,3-thiazol-5-yl)phenyl]ethyl}carbamoyl)pyrrolidin-1-yl]-3,3-dimethyl-1-oxobutan-2-yl}amino)-2-oxoethoxy][1,1′-biphenyl]-4-yl}-2,3,9-trimethyl-6H-thieno[3,2-f][1,2,4]triazolo[4,3-a][1,4]diazepin-6-yl]acetate] as the compound, how does the pIC50 (BRD4 bromodomain 1) read?
**A.** 7.33

**Q.** What about the DC50 (BRD4 protein) of the same compound?
**A.** 0.00015 µM

**Q.** `COC(=O)C[C@@H]1N=C(c2ccc(N3CC[C@@H](Oc4ccc5oc(C(=O)N[C@H](C(=O)N6C[C@H](O)C[C@H]6C(=O)N[C@@H](C)c6ccc(-c7scnc7C)cc6)C(C)(C)C)cc5c4)C3)cc2)c2c(sc(C)c2C)-n2c(C)nnc21` [Example 142, methyl [(6S)-4-{4-[(3R)-3-{[2-({(2S)-1-[(2S,4R)-4-hydroxy-2-({(1S)-1-[4-(4-methyl-1,3-thiazol-5-yl)phenyl]ethyl}carbamoyl)pyrrolidin-1-yl]-3,3-dimethyl-1-oxobutan-2-yl}carbamoyl)-1-benzofuran-5-yl]oxy}pyrrolidin-1-yl]phenyl}-2,3,9-trimethyl-6H-thieno[3,2-f][1,2,4]triazolo[4,3-a][1,4]diazepin-6-yl]acetate] was tested. Which pIC50 (BRD4-1 (GST)) did it give?
**A.** 6.96

**Q.** And the DC50 (BRD4 protein)?
**A.** 0.00072 µM

**Q.** `COC(=O)C[C@@H]1N=C(c2ccc(-c3ccc(C(=O)N[C@H](C(=O)N4C[C@H](O)C[C@H]4C(=O)N[C@@H](C)c4ccc(-c5scnc5C)cc4)C(C)(C)C)c(Cl)c3)cc2)c2c(sc(C)c2C)-n2c(C)nnc21` [Example 157, methyl {(6S)-4-[3′-chloro-4′-({(2S)-1-[(2S,4R)-4-hydroxy-2-({(1S)-1-[4-(4-methyl-1,3-thiazol-5-yl)phenyl]ethyl}carbamoyl)pyrrolidin-1-yl]-3,3-dimethyl-1-oxobutan-2-yl}carbamoyl)[1,1′-biphenyl]-4-yl]-2,3,9-trimethyl-6H-thieno[3,2-f][1,2,4]triazolo[4,3-a][1,4]diazepin-6-yl}acetate] was tested. Which pIC50 (BRD4-1 (GST)) did it give?
**A.** 7.21

**Q.** What about the DC50 (BRD4 protein) of the same compound?
**A.** 0.00038 µM
